Measured values from patent publication US10463044B2, “Molecules that inhibit efflux pumps in multi-drug resistant bacteria and uses thereof” (priority 2014, dated 2019).
Where two headings read alike, the source gives them in different places.

Assays:
[1] = system: tetracycline resistant E. coli (tetA efflux pump); test: microbe, parasite or virus in culture; type: cell-based, Escherichia coli; details: microtiter, inhibition greater than 80% considered as the MIC
Text: Among the organisms studied are several strains of the bacterium E. coli.
Minimal Inhibitory Concentration (MIC) Procedure. […] Streak the E. coli (DH5α or K-12 MG1655) strain on L.B agar plates. […] Prepare initial concentration of all the compounds required. • 5. […] Vortex each test tube for 2-3 seconds. • 9. […] Vortex each test tube for 2-3 seconds. • 11. […]
(§1) The minimal inhibitory concentrations (MIC) of all the compounds against three bacterial strains were first determined using the microtiter technique as described above. […] Antimicrobial property of hydraphiles is attributed to the disruption of ion homeostasis in bacteria.

[2] = system: tetracycline resistant E. coli (tetA efflux pump); type: cell-based, Escherichia coli
Description: However, the bacterial strains used herein are multidrug resistant and the effect of hydraphiles on the inhibition of resistance mechanism (efflux pumps) was not known. The hydraphiles and the controls were tested next to see whether they could recover the activity of antibiotics against efflux pump expressing Gram-positive and Gram-negative bacteria. The MIC of antibiotics were determined in the presence of ½ [MIC] or ¼ [MIC] of each hydraphile or the controls used.

[3] = system: S. aureus 1199B; test: MIC, S. aureus 1199B; type: cell-based, Staphylococcus aureus
Text: K. pneumoniae (ATCC BAA 2146; another Gram-negative bacterium) that expresses multiple classes of efflux pumps and NDM-1 gene was also used. This K. pneumoniae is a clinically relevant strain that was isolated from a patient. Gram-positive S. aureus 1199B was used that overexpresses the NorA efflux pump. Since ethidium bromide and norfloxacin are the substrates of efflux pumps, S. aureus 1199B was used to evaluate the activity of efflux pumps in the presence of the hydraphiles and other membrane disruptors.
as §1

[4] = target: T1, NorA efflux pump (Staphylococcus aureus, UniProt P0A0J7); test: Ethidium bromide accumulation in S. aureus 1199B; type: cell-based; details: compound at 4 μM
T1 construct: Gram-positive S. aureus 1199B was used that overexpresses the NorA efflux pump; endogenous in cells; host or cells: S. aureus 1199B
T1 sequence (P0A0J7 whole entry): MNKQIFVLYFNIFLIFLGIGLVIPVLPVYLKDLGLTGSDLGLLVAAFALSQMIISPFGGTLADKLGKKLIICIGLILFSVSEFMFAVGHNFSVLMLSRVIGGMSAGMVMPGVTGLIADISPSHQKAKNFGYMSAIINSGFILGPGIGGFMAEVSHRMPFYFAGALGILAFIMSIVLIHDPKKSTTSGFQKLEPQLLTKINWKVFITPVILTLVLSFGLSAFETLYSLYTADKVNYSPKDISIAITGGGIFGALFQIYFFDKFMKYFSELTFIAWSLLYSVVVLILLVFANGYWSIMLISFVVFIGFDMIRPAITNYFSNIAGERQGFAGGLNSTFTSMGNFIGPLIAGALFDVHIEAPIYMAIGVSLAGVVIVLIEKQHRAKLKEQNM
Description: To determine if the activity of efflux pump and accumulation of substrate in the cell cytoplasm was affected by hydraphiles, the S. aureus 1199B strain overexpressing the NorA efflux pump was used. Since ethidium bromide (EB) is one of the substrates of the norA efflux pump, fluorescence from DNA-EB complex was utilized to measure effect of hydraphiles on the norA efflux pump. First, EB was added to the S. aureus 1199B cells followed by hydraphiles or the controls. If the hydraphiles allows for EB accumulation in the cell cytoplasm, an increase in fluorescence would be expected. […] Next step was to determine if the accumulation of EB in the cell cytoplasm was due to the ability of hydraphiles to inhibit the activity of the norA efflux pump or just a simple membrane disruption mechanism.

[5] = target: T1, NorA efflux pump; test: Ethidium bromide release from preloaded S. aureus 1199B (efflux pump inhibition); type: cell-based; details: compound at 4 μM
Description: In a following experiment, the ability of hydraphiles to inhibit the activity of efflux pumps was determined. Specifically, the S. aureus cells were preloaded with EB using 100 μM CCCP. The cells were washed to remove extracellular EB and CCCP. The cells were then treated with hydraphiles. If hydraphiles inhibit the activity of efflux pumps, then there should be small or no change in fluorescence of EB-DNA complex. […] However, if there is no effect of hydraphiles on the efflux pump activity, EB would be released resulting in a decrease in fluorescence.

[6] = system: HeLa; test: Cytotoxicity of hydraphiles to HeLa (XTT assay); details: concentration not given
[7] = system: Cos-7; test: Cytotoxicity of hydraphiles to Cos-7 (XTT assay); details: concentration not given
[8] = system: HEK-293; test: Cytotoxicity of hydraphiles to HEK-293 (XTT assay); details: concentration not given
[9] = system: E. coli cells; test: Potassium release from E. coli cells (potassium selective electrode); details: control
Description: This change in potassium ion concentrations was measured using a Potassium selective electrode. […] Gramicidin D and valinomycin were used as controls. […] The potassium transport ability of C8-C14 hydraphiles was then tested at 4 μM.

[10] = system: Tet^R E. coli; test: Resistance development by sequential culturing
Description: Sequential culturing method was used to determine if bacteria could develop resistance to the hydraphiles.

[11] = system: HEK-293 cells; type: cell-based, human
Text: It could be argued that hydraphiles could also localize and disrupt the mammalian cell membranes. […] These hydraphiles increased the permeability of E. coli cells at ½ MIC concentrations. […] It is concluded that C8-C14 hydraphiles can selectively increase the permeability of bacterial cells without affecting the permeability of mammalian cells. […] DMSO and Triton X-100 were used as controls.

[12] = amphiphile 1 μM (½[MIC] for C14 hydraphile)
[13] = amphiphile/control 1700 μM (0.1%)

With `COC(=O)[C@H]1[C@H]2C[C@@H]3c4[nH]c5cc(OC)ccc5c4CCN3C[C@H]2C[C@@H](OC(=O)c2cc(OC)c(OC)c(OC)c2)[C@@H]1OC` [Reserpine] the MIC ([1]; Escherichia coli, read-out: Minimal Inhibitory Concentrations (MIC) E. coli (Tet^R), compound alone) was > 128 µM, the Fold Enhancement ([2]; amphiphile/control 64 μM) was 2-fold and the “[Tetracycline] μM in combination” value ([2]; amphiphile/control 64 μM) was 450 µM. For the same compound, the “[Tetracycline] μM in combination” value ([2]; amphiphile/control 128 μM) was 225 µM, the MIC ([3]; Staphylococcus aureus, 1199B, read-out: Minimal Inhibitory Concentrations (MIC) S. aureus 1199B) was > 128 µM and the “accumulation of ethidium bromide (EB) in the cell cytoplasm” value [4] was “much lower”. For the same compound, the “inhibition of NorA activity, lower than that of hydraphiles” value [5] was 30%.

`N#CC(C#N)=NNc1cccc(Cl)c1` [CCCP] was tested, and the “Minimal Inhibitory Concentrations (MIC) E. coli (Tet^R)” value ([1]; compound alone) was 56 µM, the Fold Enhancement [2, 12] was 1-fold and the “[Antibiotic] μM / Used (μM) in combination” value [2, 12] was 900 µM. The Fold Enhancement ([2]; amphiphile/control 21 μM) was 2-fold, the “[Tetracycline] μM in combination” value ([2]; amphiphile/control 21 μM) was 450 µM and the “[Tetracycline] μM in combination” value ([2]; amphiphile/control 42 μM) was 225 µM. For the same compound, the “Minimal Inhibitory Concentrations (MIC) S. aureus 1199B” value ([3]; compound alone, inhibition greater than 80% considered as the MIC) was ≤4 µM, the “accumulation of ethidium bromide (EB) in the cell cytoplasm” value [4] was “much lower” and the “inhibition of NorA activity, lower than that of hydraphiles” value [5] was 30%. The “cytotoxicity to HeLa (control)” value [6] was “cytotoxic”, the “cytotoxicity to Cos-7 (control)” value [7] was “cytotoxic” and the “cytotoxicity to HEK-293 (control)” value [8] was “cytotoxic”.

In the case of `CC(C)[C@@H]1NC(=O)[C@H](C)OC(=O)[C@@H](C(C)C)NC(=O)[C@@H](C(C)C)OC(=O)[C@H](C(C)C)NC(=O)[C@H](C)OC(=O)[C@@H](C(C)C)NC(=O)[C@@H](C(C)C)OC(=O)[C@H](C(C)C)NC(=O)[C@H](C)OC(=O)[C@@H](C(C)C)NC(=O)[C@@H](C(C)C)OC1=O` [Valinomycin, reference compound], the Fold Enhancement ([2]; amphiphile/control 20 μM) is reported as 2-fold, the “[Tetracycline] μM in combination” value ([2]; amphiphile/control 20 μM) is reported as 450 ± 100 µM and the “ion transport from E. coli (potassium)” value [9] is reported as “no change in ion transport”.

In the case of `CN(C)c1ccc(O)c2c1C[C@H]1C[C@H]3[C@H](N(C)C)C(O)=C(C(N)=O)C(=O)[C@@]3(O)C(O)=C1C2=O` [minocycline], the “time in which Tet^R E. coli developed resistance” value [10] is reported as 4 to 6 days.

In the case of Triton X-100 [reference compound], the “[Tetracycline] μM in combination” value ([2]; amphiphile/control 20 μM) is reported as 450 ± 100 µM, the Fold Enhancement [2, 13] is reported as 2-fold and the “[Tetracycline] μM in combination” value [2, 13] is reported as 450 ± 100 µM. The “viability and permeability of HEK-293 cells” value [11] was “killed all the HEK-293 cells”.
